The results in this text go back to paper PMC3597565, “Display of Multimeric Antimicrobial Peptides on the Escherichia coli Cell Surface and Its Application as Whole-Cell Antibiotics” (PLoS ONE, 2013).

Each structure is given as a SMILES string. ≈ marks a conversion by molar mass, not a printed value. Peptide text beside a SMILES is read from it.

Holding throughout (assay type): cell-based
The subject of experiment [1] is Bacillus subtilis (ATCC 62037). To be noted: ATCC 62037, 3 h; for MIC: pH 7.4. Here is the method:
(§1) The antimicrobial activity of each peptide was determined against eight representative microorganisms, including Gram-positive and Gram-negative bacteria and fungi, using the broth micro dilution assay as described by Park et al. with a slight modification. Briefly, mid-logarithmic phase cells were diluted to 1×10^5 cfu/ml in 10 mM sodium phosphate buffer (NAPB), pH 7.4. Each well of 96-well propylene micro titer plates (Costar, Cambridge, MA, USA) was filled with 90 µl of the diluted cell suspension and 10 µl of serially diluted peptide samples. After incubation for 3 h, fresh medium (trypticase soy broth for bacteria and Saboraud' medium for fungi) was added to the mixture and incubated at 37°C (bacteria) or 30°C (fungi) for an additional 12 h. Inhibition of growth was determined by measuring the absorbance at 620 nm with a Model 550 Microplate Reader (Bio-Rad, Hercules, CA, USA). […] The MIC values were calculated as an average of two independent experiments performed in triplicate.
(§2) ^a To determine the effect of protease digestion on the antimicrobial activity of Buf IIIb-L, synthetic Buf IIIb-L was first incubated with pepsin, trypsin, or chymotrypsin. After incubation at 37 °C for 30 min, the antimicrobial activity of the digested peptide was determined against eight representative microorganisms, including Gram-positive and Gram-negative bacteria and fungi, as described in Materials and Methods.

For experiment [2], the system named is Candida albicans (ATCC 10231). To be noted: ATCC 10231, 3 h; for MIC: pH 7.4. How it is done:
as §1, §2

Experiment [3] relates to Escherichia coli (ATCC 27325). As to conditions: ATCC 27325, 3 h; for MIC: pH 7.4. How it is done:
as §1, §2

The subject of experiment [4] is Pseudomonas putida (ATCC 17426). As to conditions: ATCC 17426, 3 h; for MIC: pH 7.4. Here is the method: as §1, §2
Experiment [5] deals with Saccharomyces cerevisiae (ATCC 44774). To be noted: ATCC 44774, 3 h; for MIC: pH 7.4. How it is done:
as §1, §2

The test system of experiment [6] is Salmonella enteritidis (ATCC 13076). As to conditions: ATCC 13076, 3 h; for MIC: pH 7.4. How it is done: as §1, §2
In experiment [7] the test system is Staphylococcus aureus (ATCC 15752). As to conditions: ATCC 15752, 3 h; for MIC: pH 7.4. Here is the method: as §1, §2
Experiment [8] deals with Streptococcus mutans (ATCC 25175). To be noted: ATCC 25175, 3 h; for MIC: pH 7.4. Here is the method: as §1, §2
For experiment [9], the system named is Listeria monocytogenes (ATCC 15313). To be noted: ATCC 15313, 3 h. Here is the method:
as §1, with “After incubation for 3 h, fresh medium (trypticase soy broth for bacteria and Saboraud' medium for fungi) was added to the mixture and incubated at 37°C (bacteria) or 30°C (fungi) for an additional 12 h.” left out
Antimicrobial activities of the pepsin-digested peptide mixtures obtained from E. coli cells with surface-expressed LO-Bn fusion proteins were tested against two oral infectious pathogens, Salmonella enteritidis (ATCC 13076) and Listeria monocytogenes (ATCC 15313) as described above except using 10 µl of the 20-fold diluted peptide mixtures obtained from 1×10^11 E. coli cells with surface-expressed LO-Bn fusion proteins instead of synthetic peptide. Growth of cells was determined by measuring absorbance at 620 nm with a Model 550 Microplate Reader (Bio-Rad). […]

The test system of experiment [10] is eight representative microorganisms, including Gram-positive and Gram-negative bacteria and fungi. To be noted: 3 h. How it is done:
as §1

Take `CC[C@H](C)[C@H](NC(=O)[C@@H]1CCCN1C(=O)[C@H](Cc1c[nH]c2ccccc12)NC(=O)[C@H](CCC(N)=O)NC(=O)[C@H](CCCNC(=N)N)NC(=O)[C@@H](NC(=O)[C@@H](NC(=O)[C@@H](N)CCCNC(=N)N)C(C)C)C(C)C)C(=O)NCC(=O)N[C@@H](CCCNC(=N)N)C(=O)N[C@H](C(=O)N[C@H](C(=O)N[C@@H](CCCNC(=N)N)C(=O)N[C@@H](CCCNC(=N)N)C(=O)N[C@H](C(=O)N[C@H](C(=O)N[C@@H](CCCNC(=N)N)C(=O)N[C@@H](CCCNC(=N)N)C(=O)N[C@H](C(=O)N[C@H](C(=O)N[C@@H](CCCNC(=N)N)C(=O)N[C@@H](CC(C)C)C(=O)O)C(C)C)C(C)C)C(C)C)C(C)C)C(C)C)C(C)C` [Buf IIIb-L] (H-RVVRQWPIGRVVRRVVRRVVRL-OH): the “MIC of Buf IIIb-L digested with Chymotrypsin” value in experiment [1], in [2], in experiment [3], in [4], in experiment [5] and in experiment [6] was more than 256 µg/mL in each case. Further, the “MIC of Buf IIIb-L digested with Chymotrypsin” value in experiment [7] and in [8] was more than 256 µg/mL each time. In addition, the “MIC of Buf IIIb-L digested with Pepsin” value in experiment [1] came to 2 µg/mL; in experiment [2] it was 2 µg/mL; in [3], 2 µg/mL; in experiment [4], 4 µg/mL; in experiment [5], 2 µg/mL; in [6], 4 µg/mL. Also, the “MIC of Buf IIIb-L digested with Pepsin” value in experiment [7] and in experiment [8] was 2 µg/mL in each case. Also, the “MIC of Buf IIIb-L digested with Trypsin” value in experiment [1], in [2], in [3], in experiment [4], in experiment [5] and in experiment [6] was more than 256 µg/mL in each case. Further, the “MIC of Buf IIIb-L digested with Trypsin” value in experiment [7] and in experiment [8] was more than 256 µg/mL in each case. Also, the MIC in [1] was found to be 2 µg/mL (≈ 0.726 µM); in [2] it was 2 µg/mL (≈ 0.726 µM); in experiment [3] it was 2 µg/mL (≈ 0.726 µM); in experiment [4] it was 4 µg/mL (≈ 1.45 µM); in experiment [5], 2 µg/mL (≈ 0.726 µM); in [6] it was 4 µg/mL (≈ 1.45 µM). Further, the MIC in [7], in experiment [8] and in experiment [9] was 2 µg/mL (≈ 0.726 µM) throughout.
`CC[C@H](C)[C@H](NC(=O)[C@@H]1CCCN1C(=O)[C@H](Cc1c[nH]c2ccccc12)NC(=O)[C@H](CCC(N)=O)NC(=O)[C@H](CCCNC(=N)N)NC(=O)[C@@H](NC(=O)[C@@H](NC(=O)[C@@H](N)CCCNC(=N)N)C(C)C)C(C)C)C(=O)NCC(=O)N[C@@H](CCCNC(=N)N)C(=O)N[C@H](C(=O)N[C@H](C(=O)N[C@@H](CCCNC(=N)N)C(=O)N[C@@H](CCCNC(=N)N)C(=O)N[C@H](C(=O)N[C@H](C(=O)N[C@@H](CCCNC(=N)N)C(=O)N[C@@H](CCCNC(=N)N)C(=O)N[C@H](C(=O)N[C@H](C(=O)N[C@@H](CCCNC(=N)N)C(=O)N[C@@H](Cc1ccc(O)cc1)C(=O)O)C(C)C)C(C)C)C(C)C)C(C)C)C(C)C)C(C)C` [Buf IIIb-Y] (H-RVVRQWPIGRVVRRVVRRVVRY-OH): the minimal inhibitory concentration (MIC) in [1] was found to be 2 µg/mL (≈ 0.713 µM); in experiment [2], 4 µg/mL (≈ 1.43 µM); in experiment [3] it was 4 µg/mL (≈ 1.43 µM); in [4], 2 µg/mL (≈ 0.713 µM); in [5], 1 µg/mL (≈ 0.356 µM); in [6], 2 µg/mL (≈ 0.713 µM). Moreover, the minimum inhibitory concentration (MIC) in [7] and in [8] was 2 µg/mL (≈ 0.713 µM) each time.
As to `CC(C)C[C@H](NC(=O)CNC(=O)[C@H](C)NC(=O)[C@@H](N)CCCNC(=N)N)C(=O)N[C@@H](CCC(N)=O)C(=O)N[C@@H](Cc1ccccc1)C(=O)N1CCC[C@H]1C(=O)N[C@H](C(=O)NCC(=O)N[C@@H](CCCNC(=N)N)C(=O)N[C@@H](CC(C)C)C(=O)N[C@@H](CC(C)C)C(=O)N[C@@H](CCCNC(=N)N)C(=O)N[C@@H](CCCNC(=N)N)C(=O)N[C@@H](CC(C)C)C(=O)N[C@@H](CC(C)C)C(=O)N[C@@H](CCCNC(=N)N)C(=O)N[C@@H](CCCNC(=N)N)C(=O)N[C@@H](CC(C)C)C(=O)N[C@@H](CC(C)C)C(=O)N[C@@H](CCCNC(=N)N)C(=O)O)C(C)C` [Buforin llb, reference compound] (H-RAGLQFPVGRLLRRLLRRLLR-OH; N-terminus and C-terminus assumed), the minimum inhibitory concentration (MIC) in experiment [1] is 1 µg/mL (≈ 0.391 µM); in experiment [2], 2 µg/mL (≈ 0.781 µM); in [3], 1 µg/mL (≈ 0.391 µM); in [4], 2 µg/mL (≈ 0.781 µM); in experiment [5], 2 µg/mL (≈ 0.781 µM); in [6] it was 2 µg/mL (≈ 0.781 µM). Moreover, the MIC in experiment [7] and in [8] was 2 µg/mL (≈ 0.781 µM) each time.
On to `CC[C@H](C)[C@H](NC(=O)[C@@H]1CCCN1C(=O)[C@H](Cc1c[nH]c2ccccc12)NC(=O)[C@H](CCC(N)=O)NC(=O)[C@H](CCCNC(=N)N)NC(=O)[C@@H](NC(=O)[C@@H](NC(=O)[C@@H](N)CCCNC(=N)N)C(C)C)C(C)C)C(=O)NCC(=O)N[C@@H](CCCNC(=N)N)C(=O)N[C@H](C(=O)N[C@H](C(=O)N[C@@H](CCCNC(=N)N)C(=O)N[C@@H](CCCNC(=N)N)C(=O)N[C@H](C(=O)N[C@H](C(=O)N[C@@H](CCCNC(=N)N)C(=O)N[C@@H](CCCNC(=N)N)C(=O)N[C@H](C(=O)N[C@H](C(=O)N[C@@H](CCCNC(=N)N)C(=O)O)C(C)C)C(C)C)C(C)C)C(C)C)C(C)C)C(C)C` [Buf IIIb] (H-RVVRQWPIGRVVRRVVRRVVR-OH), for which the MIC in experiment [1] worked out at 2 µg/mL (≈ 0.757 µM); in [2] it was 1 µg/mL (≈ 0.378 µM); in experiment [3], 1 µg/mL (≈ 0.378 µM); in [4] it was 1 µg/mL (≈ 0.378 µM); in experiment [5], 0.5 µg/mL (≈ 0.189 µM); in [6], 2 µg/mL (≈ 0.757 µM). In addition, the minimal inhibitory concentration (MIC) in [7] and in experiment [8] was 2 µg/mL (≈ 0.757 µM) each time. In addition, the “MIC, range over the microorganisms of Table 2” value in experiment [10] was in the range of 0.5 to 2 µg/mL.
In the case of `CC[C@H](C)[C@H](NC(=O)[C@@H]1CCCN1C(=O)[C@H](Cc1c[nH]c2ccccc12)NC(=O)[C@H](CCC(N)=O)NC(=O)[C@H](CCCNC(=N)N)NC(=O)[C@@H](NC(=O)[C@@H](NC(=O)[C@@H](N)CCCNC(=N)N)C(C)C)C(C)C)C(=O)NCC(=O)N[C@@H](CCCNC(=N)N)C(=O)N[C@H](C(=O)N[C@H](C(=O)N[C@@H](CCCNC(=N)N)C(=O)N[C@@H](CCCNC(=N)N)C(=O)N[C@H](C(=O)N[C@H](C(=O)N[C@@H](CCCNC(=N)N)C(=O)N[C@@H](CCCNC(=N)N)C(=O)N[C@H](C(=O)N[C@H](C(=O)N[C@@H](CCCNC(=N)N)C(=O)N[C@@H](Cc1ccccc1)C(=O)O)C(C)C)C(C)C)C(C)C)C(C)C)C(C)C)C(C)C` [Buf IIIb-F] (H-RVVRQWPIGRVVRRVVRRVVRF-OH), the minimum inhibitory concentration (MIC) stood at 2 µg/mL (≈ 0.717 µM) in experiment [1]; 0.5 µg/mL (≈ 0.179 µM) in experiment [2]; 4 µg/mL (≈ 1.43 µM) in experiment [3]; 4 µg/mL (≈ 1.43 µM) in experiment [4]; 0.5 µg/mL (≈ 0.179 µM) in experiment [5]; 2 µg/mL (≈ 0.717 µM) in experiment [6]. The minimum inhibitory concentration (MIC) in experiment [7] and in experiment [8] was 2 µg/mL (≈ 0.717 µM) throughout.
